In brackets after ≈: the same amount, converted by molar mass. Read-outs that look alike come from different tables or passages of the source.

In series [1] the test system is mouse hepatocytes (CD-1 males). Briefly: Intrinsic clearance in cryopreserved mouse hepatocytes. The series is classed as in vitro ADME. On the procedure: (§1) Cryopreserved hepatocytes from humans, rats (Sprague-Dawley males) and from mice (CD-1 males) were used for incubation at different times (0, 0.5, 1, 1.5, 2 hours) at 37° C. followed by HPLC-MS/MS detection. The aim was to verify the clearance time of the test substance on hepatocytes. The experiment was performed on a 96-well plate and the cryopreserved hepatocytes were thawed and resuspended in Krebs-Heinslet buffer(pH 7.3). The reaction was started by adding each test compound to each cell suspension and performing the incubation at the times indicated above. The reaction was quenched with addition of acetonitrile in the wells and detection by HPLC-MS/MS (mass spectrometry). MS/MS is performed by combining two mass detectors into a single instrument.

In a further series the target is MT1 receptor (Homo sapiens (Human), UniProt P48039). In words: MT1 functional assay. Conditions: MT1 and MT2 receptors.
Sequence of MT1 receptor (P48039 whole entry): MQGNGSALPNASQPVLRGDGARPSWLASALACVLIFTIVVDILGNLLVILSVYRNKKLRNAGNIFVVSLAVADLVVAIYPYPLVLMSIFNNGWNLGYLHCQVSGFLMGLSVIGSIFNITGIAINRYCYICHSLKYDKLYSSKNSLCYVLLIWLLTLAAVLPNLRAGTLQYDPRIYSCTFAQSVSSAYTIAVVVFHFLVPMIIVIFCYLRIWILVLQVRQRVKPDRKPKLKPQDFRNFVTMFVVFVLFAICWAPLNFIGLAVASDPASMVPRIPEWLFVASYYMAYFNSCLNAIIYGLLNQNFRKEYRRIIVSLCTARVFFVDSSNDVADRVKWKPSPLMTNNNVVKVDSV
Another series deals with human hepatocytes. In words: Intrinsic clearance in cryopreserved human hepatocytes. The class given is in vitro ADME. On the procedure:
as §1

Series [2] in a line: Pharmacokinetics (PK) in mouse, I.V. and oral. The series is classed as in vivo, CD-1 mice. On the procedure: PK tests were performed with CD-1 mice, using 4 animals per molecule tested, 2 animals for pharmacokinetic analysis by intravenous (IV) administration and 2 animals for oral administration. The treatment was carried out in a single dose: I.V. group with dose of 1 mg/kg and Oral group with dose of 10 mg/kg. […] Blood collection was performed after euthanasia at 08 defined time points and at 24 hours post-dose. The pharmacokinetic analysis parameters detected for Group IV were: half-life (t½), drug concentration at time zero (C0), last measurable plasma concentration (AUClast), area under the plasma concentration curve extrapolation percentage (AUC % ext), area under the plasma concentration curve extrapolation to infinity (AUCinf), volume of distribution (Vz), steady state volume of distribution (Vss), clearance (CL) and mean residence time (MRT). The parameters evaluated for the Oral group were: bioavailability (F %), maximum concentration reached (Cmax), time to reach maximum plasma concentration (Tmax), last measurable plasma concentration (AUClast), area under the plasma concentration curve extrapolation percentage (AUC % ext), area under the plasma concentration curve extrapolation to infinity (AUCinf), area under the plasma concentration curve extrapolation to infinity versus dose (AUCinf/Dose), half-Life (t½), and mean residence time (MRT).

Series [3] relates to rat hepatocytes (Sprague-Dawley males). In words: Intrinsic clearance in cryopreserved rat hepatocytes. The class given is in vitro ADME. As for the experimental part: as §1
For another series, the target named is CYP1A2 (Homo sapiens (Human), UniProt P05177). Briefly: CYP inhibition, fluorogenic substrate. The series is classed as in vitro ADME. The source says: (§2) The CYP inhibition test used fluorogenic substrates specific to each CYP to check for inhibition thereof by detection of the expected metabolite using a fluorimetric method. Recombinant CYPs (CYP2B6, CYP2C8, […], CYP2C19, CYP2D6, CYP3A4) from specific humans for each cytochrome family, subfamily and polypeptide were used. The following were used as substrates: CEC (3-Cyano-7-Ethoxycoumarin) which forms as metabolite CHC (3-Cyano-7-Hydroxycoumarin); EFC (7-Ethoxy-4-trifluoromethyl coumarin), forming the metabolite HFC (7-Hydroxytri fluoromethylcoumarin); DBF (Dibenzylfluorescein) and its respective fluorescein metabolite; MFC (7-Methoxy-4-trifluoromethylcoumarin) which forms the metabolite HFC (7-Hydroxytrifluoromethylcoumarin); BFC (7-Benzyloxy-Trifluoromethylcoumarin) and its metabolite HFC; and BzRes (benzyloxyresorufin) to form resofurine. The detection of the metabolite was done with a fluorimetric method: analytical technique to identify and characterize the amount of substance by excitation using a beam of ultraviolet light and measurement of the emitted fluorescence. For detection, a 96-well plate was used. Each sample was tested in two wells (n=2) as standard condition. At least 04 wells were separated for vehicle (control). Compounds were tested at a concentration […], standard for this assay. They were preincubated with a NADPH generator system in a phosphate buffer (pH 7.4) for 5 minutes at 37° C. The reaction was started by adding the specific CYP enzymes, substrate and bovine serum albumin (BSA<0.4 mg/ml). Incubations were performed between 20-50 minutes at 37° C. according to the specific parameter of each fluorogenic substrate, for the evaluated component. Fluorescence at each well was detected before and after the incubation period.
Sequence of CYP1A2 (P05177 whole entry): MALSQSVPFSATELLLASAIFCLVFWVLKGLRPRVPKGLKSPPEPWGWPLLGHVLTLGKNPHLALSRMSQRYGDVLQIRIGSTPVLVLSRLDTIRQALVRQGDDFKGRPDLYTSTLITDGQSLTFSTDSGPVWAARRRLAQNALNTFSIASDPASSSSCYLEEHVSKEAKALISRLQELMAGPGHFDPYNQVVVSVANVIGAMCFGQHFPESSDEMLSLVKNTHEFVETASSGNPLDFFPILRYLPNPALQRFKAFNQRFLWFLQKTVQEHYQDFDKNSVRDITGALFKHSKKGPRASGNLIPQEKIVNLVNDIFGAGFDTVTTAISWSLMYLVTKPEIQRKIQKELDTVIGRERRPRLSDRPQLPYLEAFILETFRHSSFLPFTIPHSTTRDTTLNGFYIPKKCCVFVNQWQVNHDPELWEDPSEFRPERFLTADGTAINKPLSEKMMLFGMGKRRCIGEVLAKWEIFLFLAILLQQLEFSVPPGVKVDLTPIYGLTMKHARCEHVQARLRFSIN

The target in series [4] is P450 cytochrome 1A2 (CYP1A2) (Homo sapiens (Human), UniProt P05177). As to conditions: cited from earlier work.
Sequence of P450 cytochrome 1A2 (CYP1A2) (P05177 whole entry): as above
The next series has as its system CYP2C9 and CYP2C19. Conditions: cited from earlier work.
A further series has as its target CYP2C9 (Homo sapiens (Human), UniProt P11712). In words: CYP inhibition, fluorogenic substrate. The series is classed as in vitro ADME. Set-up: dose or concentration left out as unconfirmed. Conditions: recombinant CYP2C9, pH 7.4.
From the text: as §2

A further series concerns the target CYP2B6 (Homo sapiens (Human), UniProt P20813). In words: CYP inhibition, fluorogenic substrate. The class given is in vitro ADME. Set-up: dose or concentration left out as unconfirmed. As to conditions: recombinant CYP2B6, pH 7.4.
From the text: as §2

A further series has as its target CYP2D6 (Homo sapiens (Human), UniProt P10635). Briefly: CYP inhibition, fluorogenic substrate. On the set-up: dose or concentration left out as unconfirmed. The series is classed as in vitro ADME. Conditions: recombinant CYP2D6, pH 7.4.
From the text: as §2

Another series deals with CYP2C19 (Homo sapiens (Human), UniProt P33261). In words: CYP inhibition, fluorogenic substrate. As to conditions: recombinant CYP2C19, pH 7.4. Set-up: dose or concentration left out as unconfirmed. The class given is in vitro ADME.
Sequence of CYP2C19 (P33261 whole entry): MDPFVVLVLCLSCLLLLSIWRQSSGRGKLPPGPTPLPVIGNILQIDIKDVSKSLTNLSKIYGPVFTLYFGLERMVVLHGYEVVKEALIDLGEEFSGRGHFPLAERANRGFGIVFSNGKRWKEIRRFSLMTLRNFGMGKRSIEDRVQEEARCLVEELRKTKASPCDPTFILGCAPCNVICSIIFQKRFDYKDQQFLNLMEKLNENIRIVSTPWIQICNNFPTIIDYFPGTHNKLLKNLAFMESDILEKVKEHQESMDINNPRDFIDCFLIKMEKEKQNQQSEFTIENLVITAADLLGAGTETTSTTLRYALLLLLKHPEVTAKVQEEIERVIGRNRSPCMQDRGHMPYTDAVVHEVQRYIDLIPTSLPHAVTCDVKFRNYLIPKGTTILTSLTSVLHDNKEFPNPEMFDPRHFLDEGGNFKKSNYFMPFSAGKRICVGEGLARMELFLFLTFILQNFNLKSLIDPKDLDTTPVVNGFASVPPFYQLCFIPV
From the text: as §2

For the next series, the target named is CYP2C8 (Homo sapiens (Human), UniProt P10632). Briefly: CYP inhibition, fluorogenic substrate. The class given is in vitro ADME. On the set-up: dose or concentration left out as unconfirmed. Conditions: recombinant CYP2C8, pH 7.4.
Sequence of CYP2C8 (P10632 whole entry): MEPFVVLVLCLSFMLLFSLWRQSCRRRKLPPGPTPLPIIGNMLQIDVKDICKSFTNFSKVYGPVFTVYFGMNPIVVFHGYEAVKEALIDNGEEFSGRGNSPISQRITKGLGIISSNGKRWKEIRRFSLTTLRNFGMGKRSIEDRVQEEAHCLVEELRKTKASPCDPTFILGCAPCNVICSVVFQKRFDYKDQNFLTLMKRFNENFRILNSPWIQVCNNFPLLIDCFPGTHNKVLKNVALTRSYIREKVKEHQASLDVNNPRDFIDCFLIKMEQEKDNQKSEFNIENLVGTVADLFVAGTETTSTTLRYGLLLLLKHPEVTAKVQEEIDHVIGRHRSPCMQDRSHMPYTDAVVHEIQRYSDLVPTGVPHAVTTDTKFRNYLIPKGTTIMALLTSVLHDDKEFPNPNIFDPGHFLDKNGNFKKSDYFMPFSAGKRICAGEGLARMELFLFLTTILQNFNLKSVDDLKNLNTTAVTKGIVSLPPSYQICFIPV
From the text: as §2

Series [5] is described as follows: Water solubility (shake-flask, PBS pH 7.4). Conditions: aqueous buffer, thermodynamic from solid. The series is classed as physicochemical. On the procedure:
In addition, chromatographic purity (%) was defined as the calculation of the main peak area relative to the calculation of the peak area integrate of the standard HPLC calibration chromatogram. A standard calibration chromatogram was then generated for each compound tested along with a UV/VIS spectrum with maximal labeled absorbance. The shake-flash technique was used with constant stirring during incubation to keep a uniform medium for 24 hours in PBS at pH 7.4.

The conditions of series [6]: oral, estimated, from literature; cited from earlier work.
Setting [7] is: CD-1, plasma, intravenous 1 mg/kg.

Sequence of CYP2C9 (P11712 whole entry): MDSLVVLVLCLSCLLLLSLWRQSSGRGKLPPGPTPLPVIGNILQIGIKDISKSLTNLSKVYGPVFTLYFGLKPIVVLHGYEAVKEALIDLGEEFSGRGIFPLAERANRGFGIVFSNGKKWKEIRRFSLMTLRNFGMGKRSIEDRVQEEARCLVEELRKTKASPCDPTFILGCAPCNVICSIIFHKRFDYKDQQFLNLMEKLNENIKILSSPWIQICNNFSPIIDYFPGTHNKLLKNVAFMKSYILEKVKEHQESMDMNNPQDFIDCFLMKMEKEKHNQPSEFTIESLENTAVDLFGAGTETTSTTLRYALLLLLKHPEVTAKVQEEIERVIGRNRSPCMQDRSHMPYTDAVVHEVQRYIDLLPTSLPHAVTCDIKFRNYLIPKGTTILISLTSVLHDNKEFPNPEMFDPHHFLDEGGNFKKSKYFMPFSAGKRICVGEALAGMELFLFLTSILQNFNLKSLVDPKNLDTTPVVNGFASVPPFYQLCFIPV
Sequence of CYP2D6 (P10635 whole entry): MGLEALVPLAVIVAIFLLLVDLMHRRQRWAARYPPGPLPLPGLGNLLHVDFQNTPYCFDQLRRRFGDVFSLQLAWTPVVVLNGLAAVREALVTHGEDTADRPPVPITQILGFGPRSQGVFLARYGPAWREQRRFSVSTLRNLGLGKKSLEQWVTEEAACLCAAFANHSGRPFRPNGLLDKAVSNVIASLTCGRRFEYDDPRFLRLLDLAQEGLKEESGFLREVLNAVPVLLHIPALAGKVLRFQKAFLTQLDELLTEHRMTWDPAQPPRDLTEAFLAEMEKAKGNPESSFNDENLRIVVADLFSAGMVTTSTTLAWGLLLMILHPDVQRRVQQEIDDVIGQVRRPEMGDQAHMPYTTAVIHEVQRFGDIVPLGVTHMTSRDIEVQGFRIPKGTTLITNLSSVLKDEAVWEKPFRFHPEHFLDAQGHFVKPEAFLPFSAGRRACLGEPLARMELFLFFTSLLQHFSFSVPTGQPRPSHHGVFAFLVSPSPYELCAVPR
Sequence of CYP2B6 (P20813 whole entry): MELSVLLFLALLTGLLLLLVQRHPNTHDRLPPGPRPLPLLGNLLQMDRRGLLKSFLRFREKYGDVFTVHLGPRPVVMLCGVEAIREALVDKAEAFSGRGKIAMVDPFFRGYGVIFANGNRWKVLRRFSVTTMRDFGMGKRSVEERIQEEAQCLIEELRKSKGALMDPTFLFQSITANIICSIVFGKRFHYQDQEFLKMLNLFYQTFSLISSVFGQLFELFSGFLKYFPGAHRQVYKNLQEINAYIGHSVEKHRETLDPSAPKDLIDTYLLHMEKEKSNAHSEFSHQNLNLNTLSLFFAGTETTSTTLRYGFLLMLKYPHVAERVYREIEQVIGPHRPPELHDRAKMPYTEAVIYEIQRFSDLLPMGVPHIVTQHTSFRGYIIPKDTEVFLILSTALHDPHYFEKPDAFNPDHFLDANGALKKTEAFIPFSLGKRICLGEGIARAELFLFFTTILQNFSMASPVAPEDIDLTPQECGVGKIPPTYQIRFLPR

One may read the half-life as how long it takes for the measured level to halve. By AUC(0-t) is commonly meant the area under the concentration-time curve up to a stated or last time point. As usually defined, the bioavailability is dose-corrected exposure relative to a reference, in per cent. One may read the Cmax as the maximum level reached in the sampled fluid or tissue. By Tmax is commonly meant the time at which the peak concentration occurs. By inhibition is commonly meant the relative decrease from the control value, in per cent. In general, solubility refers to the concentration that dissolves in the medium under given conditions. In the case of `COc1ccc2cccc(CCNC(C)=O)c2c1` [IA2-76, agomelatine, reference compound], the “Intrinsic clearance half-life, Mouse CD-1” value in [1] is 25 min. Besides, on MT1 receptor, the “intrinsic activity (agonist, antagonist or inverse agonist)” value is given as “agonist”. The “Intrinsic clearance half-life, Human” value with human hepatocytes was 48 min. This compound showed a C0 in series [2] (setting [7]) of 811 ng/mL. In addition, the clearance in series [2] (setting [7]) worked out at 116 mL/min/kg. Further, the half-life in [2] (setting [7]) was 8.94 min. Besides, the AUC(0-t) in series [2] (CD-1, plasma, oral 10 mg/kg) was 30.3 ng·h/mL. In addition, the bioavailability in [2] (CD-1, plasma, oral 10 mg/kg vs intravenous 1 mg/kg, read-out: F (%) bioavailability) worked out at 2.42%. Besides, the maximum concentration (Cmax) in series [2] (CD-1, plasma, oral 10 mg/kg, read-out: Cmax) turned out to be 21.9 ng/mL; in [2] (oral 10 mg/kg) it was 21.9 ng/mL. Besides, the time of peak concentration (Tmax) in series [2] (CD-1, plasma, oral 10 mg/kg, read-out: Tmax) is 15 min; in [2] (oral 10 mg/kg) it was 15 min. Also, the “F (%) bioavailability” value in series [2] (oral 10 mg/kg vs intravenous 1 mg/kg) is on record as 2.42%. Moreover, in series [3], the “Intrinsic clearance half-life, Rat Sprague-Dawley” value came to 50 min. Also, on CYP1A2, the “affinity to cytochrome isoforms (in words)” value is reported as “high affinity”. In [4], the “share metabolized in the liver by CYP1A2” value is on record as “Around 90%”. Also, the “share metabolized by CYP2C9 and CYP2C19” value with CYP2C9 and CYP2C19 is 10%. Further, the inhibition on CYP2C9 is -19.3%; on CYP2B6, 1.8%; on CYP2D6 it was 7.9%; on CYP2C19 it was 44.4%; at CYP2C8, 12.9%. In addition, in [5], the solubility at 24 h was 196 µM (≈ 47.7 µg/mL). The absolute bioavailability in [6] is 1%.
